From patent US8524778B2, “Biphenyl-4-yl-sulfonic acid arylamides and their use as therapeutic agents” (PIMCO 2664 Limited, priority 2007, dated 2013)
“Also recorded” adds a separate entry of the source. Each block holds one molecule with its values, some of them ahead of it.

How the values were obtained:
[1] = In vivo pharmacokinetics: serum levels after oral dosage (HPLC/UV); details: rat; for oral absorption (blood serum levels after oral administration): oral 10 mg/kg in corn oil, over 60 minutes, FIG. 1; for metabolic stability: oral 10 mg/kg, in vivo pharmacokinetics assay
Method: Absorption and metabolic stability were studied using an in vivo pharmacokinetics assay. Drug levels assessed using HPLC/UV.
Following overnight starvation, male Wistar rats (250 g) were given a bolus gavage of 500 μL of a solution of test compound in corn oil (5 mg/mL). Blood samples (1 mL, whole blood) were taken at various time intervals and the serum collected following centrifugation. Samples were frozen until required for analysis.
Ethyl acetate (4 mL) was added to the defrosted serum and the samples mixed for 20 minutes. Following centrifugation, the ethyl acetate layer was collected and evaporated under a stream of nitrogen. The residue was reconstituted in mobile phase and 20 μL injected onto the chromatogram.
Standard calibration curves were prepared for each of the test compounds and were linear in the range of 1 ng/mL to 250 ng/mL.
Mobile phase: 60% 25 mM ammonium acetate, pH 4; 40% acetonitrile.
Serum levels of the following compounds, following oral dosage (10 mg/kg) over the course of 60 minutes, were investigated in vivo in rats using an HPLC/UV detection system, as described above: […]

[2] = tested on: mouse collagen-induced arthritis model; test: Collagen-induced arthritis (CIA) model, joint inflammation scoring; type: in vivo; details: 10 mg/kg/day i.p.
Method: Collagen-induced arthritis (CIA) was induced in 8-week old male DBA/1 mice, by intradermal injection of 100 μL of chicken collagen type II (2 mg/mL) suspended in complete Freund's adjuvant supplemented with 2 mg/mL devitalised M. Tuberculosis into the base of the tail. This will lead to joint inflammation in >80% of the animals within 4 weeks. Treatment with ABD455 (10 mg/kg/day, delivered in corn oil) was started when joint inflammation became apparent in the first animals (in this experiment 15 days after injection), and the experiment terminated 3 weeks later. For each animal the scores for all four joints were added (maximal score=12).

[3] = tested on: TNFα-stimulated phosphorylation of IκB; test: TNFα-stimulated phosphorylation of IκB in mouse macrophages (Western blot); type: cell-based; details: 10 μM and 25 μM, 1 hour pre-treatment, 5 minutes TNFα, FIG. 4
Method: (§1) Bone marrow cells were flushed out of the long bones of 3-5 month old mice, and cultured in 10 cm tissue culture dishes for three days in α-MEM supplemented with 10% FCS, antibiotics, and recombinant mouse M-CSF (100 ng/mL). The cells were then harvested by trypsinisation, and re-plated in 6 well-plates (3×10^5 cells per well) and cultured in medium as described above for 2 more days. Cells were then serum starved and pre-treated with test compounds for 1 hour, followed by 5 minutes stimulation with TNFα. After stimulation, the cells were washed in PBS and homogenized in lysis buffer containing PBS, 0.1% (w/v) sodium dodecyl sulphate (SDS), 0.5% (w/v) sodium deoxycholate, and 2% (v/v) protease inhibitor cocktail. The cell lysates were centrifuged as 12,000 g for 10 minutes at 4° C., and the supernatant was collected and protein concentration determined using a Bio-Rad protein assay kit. Aliquots of the cell lysate containing 50 μg protein per lane were run on a 10% denaturing acrylamide gel and blotted onto a nylon membrane. The membranes were washed in Tris buffered saline (TBS) and incubated overnight at 4° C. with the relevant primary antibodies (phospho-IκB and phospho-p42/44 Erk, Cell Signalling Technology, 1:1000 dilution). […]

[4] = tested on: TNFα-stimulated phosphorylation of p42/44 Erk; test: TNFα-stimulated phosphorylation of p42/44 Erk in mouse macrophages (Western blot); type: cell-based; details: 10 μM and 25 μM, 1 hour pre-treatment, 5 minutes TNFα, FIG. 5
Method: as §1

[5] = tested on: macrophage cell line J774; test: Alamar Blue macrophage J774 viability assay; type: cell-based; details: Mus musculus; J774 cells, 72 hours with compound, n=5; Biological Study 1 table
Method: The assays are based on the survival of the J774 macrophage cell line; macrophages are closely related to osteoclasts.
J774 cells were plated at 10^4 cells per well in 100 μL αMEM (α Modified Eagle Medium) in 96-well plates and grown overnight. The next day, test compounds were added to the cultures, and cultures were continued for another 72 hours. At the end of the culture period, cell survival was determined using an Alamar Blue assay as previously described (see, e.g., Nociari et al., 1998).
Alamar Blue is an oxidation-reduction sensitive indicator. The dye itself is in the oxidised state, which is blue and non-fluorescent. […] Thus the transformation from oxidised form to reduced form can be measured by fluorimetric or colourimetric means. For fluorescence measurements, 530-560 nm excitation and 590 nm emission wavelengths are typically used. For colourimetric measurements, absorbance is measured at 570 nm (reduced form) and 600 nm (oxidised form) are typically used. A simple calculation is performed to determine the relative quantities of the two species. […]
Briefly, Alamar Blue (Biosource International) was added undiluted to the each well (1:10 v/v, 10 μL). The plate was incubated at 37° C. for 3-4 hours and the fluorescence was measured at 590 nm, with a 25 nm bandwidth. […]

SMILES: O=S(=O)(Nc1cccc(CO)c1)c1ccc(-c2ccc(Cl)cc2Cl)cc1 [ABD455, 2′,4′-Dichloro-biphenyl-4-sulfonic acid (3-hydroxymethyl-phenyl)-amide]
- metabolic stability [1]: good degree of metabolic stability
- effect on collagen-induced arthritis (in words) ([2]; 10 mg/kg/day): fully reverse the effects of collagen-induced arthritis; also recorded: much more effective in reversing the effects of collagen-induced arthritis than ABD295
- sum of the joint inflammation scores (total joint score) of study group ([2]; after 21 days, n=10, untreated group 47, FIG. 2): 3
- effect on TNFα-stimulated phosphorylation of IκB [3]: completely block
- effect on TNFα-stimulated phosphorylation of p42/44 Erk [4]: completely block

SMILES: O=[N+]([O-])c1ccccc1-c1ccc(S(=O)(=O)Nc2cccc(CO)c2)cc1 [ABD514, 2′-Nitro-biphenyl-4-sulfonic acid (3-hydroxymethyl-phenyl)-amide]
- IC50 [5]: > 4000 nM

SMILES: O=S(=O)(Nc1ccc(CO)c(CO)c1)c1ccc(-c2ccc(Cl)cc2Cl)cc1 [ABD550, N-(3,4-Bis(hydroxymethyl)phenyl)-2′,4′-dichlorobiphenyl-4-sulfonamide]
- IC50 [5]: 1200 ± 500 nM

Second part, led by results:

- oral absorption (blood serum levels after oral administration) [1]: not absorbed
SMILES: O=S(=O)(NCCCCO)c1ccc(-c2ccc(F)cc2)cc1 [ABD200, 4′-fluoro-biphenyl-4-sulfonic acid (4-hydroxybutyl)-amide, reference compound]

- oral absorption (blood serum levels after oral administration) [1]: not absorbed
SMILES: Cc1cc(S(=O)(=O)NCCCCO)ccc1-c1ccc(F)cc1F [ABD295, 2′,4′-difluoro-2-methyl-biphenyl-4-sulfonic acid (4-hydroxy-butyl)-amide, reference compound]
- sum of the joint inflammation scores (total joint score) of study group ([2]; after 22 days, n=8, untreated group 29, FIG. 3): 17

- oral absorption (blood serum levels after oral administration) [1]: not absorbed
SMILES: CCc1cc(-c2ccc(F)cc2F)ccc1S(=O)(=O)NCCCCO [ABD385, 2′,4′-difluoro-3-ethyl-biphenyl-4-sulfonic acid (4-hydroxybutyl)-amide, reference compound]

- metabolic stability [1]: good degree of metabolic stability
SMILES: O=S(=O)(Nc1cccc(CO)c1)c1ccc(-c2ccc(F)cc2F)cc1 [ABD456, 2′,4′-Difluoro-biphenyl-4-sulfonic acid (3-hydroxymethyl-phenyl)-amide]
- effect on TNFα-stimulated phosphorylation of IκB [3]: completely block
- effect on TNFα-stimulated phosphorylation of p42/44 Erk [4]: completely block
